Test results: PubChem BioAssay AID2060888 (Molecular Pharmacology Branch, DTP, NCI, 2025)
pIC50: −log10 of the molar value.

Tested on: 695427-040-R-J1-PDC complex spheroid viability
Assay: Anticancer human tumor 695427-040-R-J1-PDC patient-derived colon adenocarcinoma cell line growth inhibition [RAS]
Settings: for pIC50: curve of first compound; for viability, T/C: stronger effect = lower value; active = viability on the fitted dose curve at most 10% of control; inactive = the rest
Procedure, shortened: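 Agents were tested in combination matrices in half-log decrements from a top concentration at or near clinical Cmax (10 microM if undetermined). Targets were multi-cell spheroids of tumour lines plus HUVEC and MSC stromal cells.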
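Note: viability read after seven days of drug exposure.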
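Throughout, for viability, T/C: 100% = DMSO vehicle control viability.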

CC1(C)CCC(Nc2ncc(C(F)(F)F)c(-c3c[nH]c4c(P(C)(C)=O)c(C#N)ccc34)n2)CN1 (configuration not stated) + C=CC(=O)N1CCN(c2nc(OCC3CCCN3C)nc3c(F)c(-c4nc(N)cc(C)c4C(F)(F)F)c(Cl)cc23)C(C)C1
< 6.52: pIC50 (second compound 0.00316 µM) | pIC50 (second compound 0.01 µM) | pIC50 (second compound 0.0316 µM) | pIC50 (second compound 0.1 µM) | pIC50 (second compound 0.316 µM) | pIC50 (second compound 1 µM)
inactive: viability, T/C (second compound 0.00316 µM, first compound 0.000949 µM) 116% | viability, T/C (second compound 0.00316 µM, first compound 0.003 µM) 107% | viability, T/C (second compound 0.00316 µM, first compound 0.00949 µM) 90.6% | viability, T/C (second compound 0.00316 µM, first compound 0.03 µM) 86.5% | viability, T/C (second compound 0.00316 µM, first compound 0.0949 µM) 84.6% | viability, T/C (second compound 0.00316 µM, first compound 0.3 µM) 79.2% | viability, T/C (second compound 0.01 µM, first compound 0.000949 µM) 95.8% | viability, T/C (second compound 0.01 µM, first compound 0.003 µM) 93.3% | viability, T/C (second compound 0.01 µM, first compound 0.00949 µM) 88.4% | viability, T/C (second compound 0.01 µM, first compound 0.03 µM) 78.8% | viability, T/C (second compound 0.01 µM, first compound 0.0949 µM) 82.9% | viability, T/C (second compound 0.01 µM, first compound 0.3 µM) 84.9% | viability, T/C (second compound 0.0316 µM, first compound 0.000949 µM) 108% | viability, T/C (second compound 0.0316 µM, first compound 0.003 µM) 89.9% | viability, T/C (second compound 0.0316 µM, first compound 0.00949 µM) 96.2% | viability, T/C (second compound 0.0316 µM, first compound 0.03 µM) 75.7% | viability, T/C (second compound 0.0316 µM, first compound 0.0949 µM) 86.9% | viability, T/C (second compound 0.0316 µM, first compound 0.3 µM) 77.4% | viability, T/C (second compound 0.1 µM, first compound 0.000949 µM) 89.5% | viability, T/C (second compound 0.1 µM, first compound 0.003 µM) 95.4% | viability, T/C (second compound 0.1 µM, first compound 0.00949 µM) 101% | viability, T/C (second compound 0.1 µM, first compound 0.03 µM) 84.7% | viability, T/C (second compound 0.1 µM, first compound 0.0949 µM) 88% | viability, T/C (second compound 0.1 µM, first compound 0.3 µM) 78.4% | viability, T/C (second compound 0.316 µM, first compound 0.000949 µM) 99% | viability, T/C (second compound 0.316 µM, first compound 0.003 µM) 94% | viability, T/C (second compound 0.316 µM, first compound 0.00949 µM) 96.3% | viability, T/C (second compound 0.316 µM, first compound 0.03 µM) 83.8% | viability, T/C (second compound 0.316 µM, first compound 0.0949 µM) 83.9% | viability, T/C (second compound 0.316 µM, first compound 0.3 µM) 81.1% | viability, T/C (second compound 1 µM, first compound 0.000949 µM) 90.2% | viability, T/C (second compound 1 µM, first compound 0.003 µM) 87.3% | viability, T/C (second compound 1 µM, first compound 0.00949 µM) 96.3% | viability, T/C (second compound 1 µM, first compound 0.03 µM) 78.6% | viability, T/C (second compound 1 µM, first compound 0.0949 µM) 88.9% | viability, T/C (second compound 1 µM, first compound 0.3 µM) 79.2%
